Measurements published in PubChem BioAssay AID652001 (The Scripps Research Institute Molecular Screening Center, 2013).

Legend:
LYPLA2 = LYPLA2 enzyme kinetics with inhibitors – biochemical, substrate-based fluorescence, Ki, Km, Vmax, late-stage follow-up (AID 652001); details: recombinant LYPLA2, resorufin acetate hydrolysis fluorescence, Ki from Cheng-Prusoff
[1] = target: Acyl-protein thioesterase 2 (Homo sapiens) (UniProt O95372); test: as above; details: recombinant LYPLA2, resorufin acetate hydrolysis fluorescence
Sequence of Acyl-protein thioesterase 2 (Homo sapiens) (O95372 whole entry, looked up): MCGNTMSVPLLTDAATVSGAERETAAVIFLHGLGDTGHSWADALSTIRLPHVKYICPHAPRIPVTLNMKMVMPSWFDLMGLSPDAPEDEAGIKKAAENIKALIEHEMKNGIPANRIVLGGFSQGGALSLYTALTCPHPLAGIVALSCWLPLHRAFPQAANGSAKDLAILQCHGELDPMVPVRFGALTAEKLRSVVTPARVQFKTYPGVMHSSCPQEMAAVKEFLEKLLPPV

Ki (LYPLA2): 230 nM
IC50 [1]: 510 nM
Structure (SMILES): COc1ccc(N2CCN(C(=O)c3cc4c(s3)-c3ccccc3S(=O)(=O)C4)CC2)cc1
